Values quoted from earlier work in PubChem BioAssay AID1259410 (Chemical Carcinogenesis Research Information System (CCRIS), 2018).

Test system: rodent tumor promotion studies, tumor incidence
Assay: CCRIS tumor promotion studies

**Q.** With C=CC(N)=O as the molecule, how does the outcome (Carcinogen: METHYLNITROSOUREA [684-93-5], Doses [Carcinogen]: 50 MG/KG BW ONCE, Doses [Promoter]: 0, 20, 40 PPM IN DRINKING WATER AFTER CARCINOGEN ADMINISTRATION (STUDY DURATION: 30 WK), Doses [Promoter]: 0, 20, 40 PPM IN DRINKING WATER AFTER CARCINOGEN ADMINISTRATION (STUDY DURATION: 30 WK), Route [Carcinogen]: IP INJECTION, Route [Promoter]: DRINKING WATER, Species: RAT, Strain/Sex: SPRAGUE-DAWLEY/FEMALE (20/GROUP)) read?
**A.** Its outcome is “mammary gland: adenocarcinoma (significant increase in tumor incidence at 40 ppm”.

**Q.** For Cn1c(=O)c2c(ncn2C)n(C)c1=O, which outcome (Carcinogen: N-NITROSOBIS(2-OXOPROPYL)AMINE, 60599-38-4, Doses [Carcinogen]: 10 MG/KG 1/WK FOR 3 WK, Doses [Promoter]: 0, 2000 PPM IN DRINKING WATER BEGINNING POST CARCINOGEN TREATMENT AND CONTINUING FOR 37 WK (STUDY DURATION: 40 WK), Route [Carcinogen]: SUBCUTANEOUS, Route [Promoter]: ORAL, Species: HAMSTER, Strain/Sex: HAMSTER/FEMALE) is on record?
**A.** The outcome was “pancreas: adenocarcinoma”.

**Q.** Which outcome (Carcinogen: 7,12-DIMETHYLBENZ(A)ANTHRACENE, Doses [Carcinogen]: DERMAL, Route [Carcinogen]: DERMAL, Route [Promoter]: DERMAL, Species: MOUSE, Strain/Sex: FEMALE) does the source give for Cc1ccccc1O here?
**A.** The outcome was “integumentary system (skin)”.

**Q.** Which results are given for C[C@]12CC[C@H](O)CC1=CC[C@@H]1[C@@H]2CC[C@]2(C)C(=O)CC[C@@H]12?
**A.** outcome (Carcinogen: N-METHYL-N'-NITRO-N-NITROSOGUANIDINE, 70-25-7, Doses [Carcinogen]: 35 PPM IN WATER FOR 30 MIN ONCE, Doses [Promoter]: 0, 111, 222, 444, 888 PPM IN DIET FOR 6 MO BEGINNING 3 MO POST CARCINOGEN TREATMENT (STUDY DURATION: 9 MO), Doses [Promoter]: 0, 111, 222, 444, 888 PPM IN DIET FOR 6 MO BEGINNING 3 MO POST CARCINOGEN TREATMENT (STUDY DURATION: 9 MO), Route [Carcinogen]: IMMERSION, Route [Promoter]: ORAL, Species: FISH, Strain/Sex: RAINBOW TROUT/MALE,FEMALE): liver: tumor; outcome (Carcinogen: N-METHYL-N'-NITRO-N-NITROSOGUANIDINE, 70-25-7, Doses [Carcinogen]: 35 PPM IN WATER FOR 30 MIN ONCE, Doses [Promoter]: 0, 111, 888 PPM IN DIET FOR 6 MO BEGINNING 3 MO POST CARCINOGEN TREATMENT (STUDY DURATION: 9 MO), Doses [Promoter]: 0, 111, 888 PPM IN DIET FOR 6 MO BEGINNING 3 MO POST CARCINOGEN TREATMENT (STUDY DURATION: 9 MO), Route [Carcinogen]: IMMERSION, Route [Promoter]: ORAL, Species: FISH, Strain/Sex: RAINBOW TROUT/MALE,FEMALE): kidney: tumor; outcome (Carcinogen: N-NITROSOMORPHOLINE, 59-89-2, Doses [Carcinogen]: 120 MG/L IN DRINKING WATER FOR 7 WK, Doses [Promoter]: 0, 0.6% IN THE DIET FOR DURATION OF STUDY BEGINNING 1 WK POST CARCINOGEN TREATMENT (STUDY DURATION: 84 WK), Route [Carcinogen]: ORAL, Route [Promoter]: ORAL, Species: RAT, Strain/Sex: SPRAGUE-DAWLEY/FEMALE): liver: hepatocellular carcinoma; outcome (Carcinogen: N-NITROSOMORPHOLINE, 59-89-2, Doses [Carcinogen]: 120 MG/L IN DRINKING WATER FOR 7 WK, Doses [Promoter]: 0, 0.6% IN THE DIET FOR DURATION OF STUDY BEGINNING 1 WK POST CARCINOGEN TREATMENT (STUDY DURATION: 84 WK), Route [Carcinogen]: ORAL, Route [Promoter]: ORAL, Species: RAT, Strain/Sex: SPRAGUE-DAWLEY/MALE): liver: hepatocellular adenoma; outcome (Doses [Carcinogen]: 10 PPB IN WATER FOR 30 MIN, Doses [Promoter]: 0, 444 PPM IN DIET FOR 6 MO BEGINNING 3 MO POST CARCINOGEN TREATMENT (STUDY DURATION: 9 MO), Route [Carcinogen]: IMMERSION, Route [Promoter]: ORAL, Species: FISH, Strain/Sex: RAINBOW TROUT/MALE, FEMALE): liver: tumor; outcome (Doses [Carcinogen]: 10 PPB IN WATER, Doses [Promoter]: 0, 222, 444, 888 PPM IN DIET 1/D 5 D/WK FOR 30 WK BEGINNING 16 WK POST CARCINOGEN TREATMENT (STUDY DURATION: 46 WK), Doses [Promoter]: 0, 222, 444, 888 PPM IN DIET 1/D 5 D/WK FOR 30 WK BEGINNING 16 WK POST CARCINOGEN TREATMENT (STUDY DURATION: 46 WK), Route [Carcinogen]: IMMERSION, Route [Promoter]: ORAL, Species: FISH, Strain/Sex: RAINBOW TROUT/MALE, FEMALE): liver: tumor

**Q.** With CC(CCC(=O)NCCS(=O)(=O)O)[C@H]1CC[C@H]2[C@@H]3CC[C@@H]4C[C@H](O)CC[C@]4(C)[C@H]3C[C@H](O)[C@]12C (some centres not stated) as the molecule, how does the outcome (Doses [Carcinogen]: IR, Route [Carcinogen]: RECTAL, Route [Promoter]: RECTAL, Species: RAT, Strain/Sex: MALE,FEMALE) read?
**A.** Its outcome is “colon”.

**Q.** Which outcome (Carcinogen: 7,12-DIMETHYLBENZ(A)ANTHRACENE, Doses [Carcinogen]: TOP, Route [Carcinogen]: DERMAL, Route [Promoter]: DERMAL, Species: MOUSE, Strain/Sex: MALE) does the source give for CCCCCCCCCCCCCCCCCC(=O)OCCOC[C@@H](OCCO)[C@H]1OC[C@@H](OCCO)[C@@H]1OCCO here?
**A.** Its outcome is “integumentary system (skin)”.

**Q.** Which results are given for [Na+]?
**A.** outcome (Carcinogen: N-BUTYL-N-(4-HYDROXYBUTYL)NITROSAMINE, 3817-11-6, Doses [Carcinogen]: 0.05% IN DRINKING WATER FOR 4 WK, Doses [Promoter]: 0, 2.34% IN DIET BEGINNING POST LAST CARCINOGEN DOSE AND CONTINUING FOR 32 WK (STUDY DURATION: 37 WK), Route [Carcinogen]: ORAL, Route [Promoter]: ORAL, Species: RAT, Strain/Sex: WISTAR/MALE): urinary bladder: papilloma; outcome (Carcinogen: N-METHYL-N'-NITRO-N-NITROSOGUANIDINE, 70-25-7, Doses [Carcinogen]: 0.25 ML/10 G BW OF A 5 G/L DISTILLED WATER SOLUTION (7.5-8.8 MG/RAT) ONCE, Doses [Promoter]: 0, 10% IN DIET BEGINNING POST CARCINOGEN DOSE AND CONTINUING FOR STUDY DURATION (STUDY DURATION: 1 YR), Route [Carcinogen]: INTRAGASTRIC, Route [Promoter]: ORAL, Species: RAT, Strain/Sex: ACI/MALE): forestomach: squamous carcinoma; outcome (Carcinogen: N-METHYL-N'-NITRO-N-NITROSOGUANIDINE, 70-25-7, Doses [Carcinogen]: 25 UG/ML IN DRINKING WATER FOR 25 WK, Doses [Promoter]: 0, 10% IN DIET FOR 26 WK BEGINNING 1 WK POST CARCINOGEN TREATMENT (STUDY DURATION: 52 WK), Route [Carcinogen]: ORAL, Route [Promoter]: ORAL, Species: RAT, Strain/Sex: WISTAR/MALE): glandular stomach: adenocarcinoma; outcome (Carcinogen: N-METHYL-N'-NITRO-N-NITROSOGUANIDINE, 70-25-7, Doses [Carcinogen]: 100 PPM IN DRINKING WATER FOR 8 WK, Doses [Promoter]: 0, 5, 10% IN DIET FOR 82 WK BEGINNING POST CARCINOGEN TREATMENT (STUDY DURATION: 90 WK), Doses [Promoter]: 0, 5, 10% IN DIET FOR 82 WK BEGINNING POST CARCINOGEN TREATMENT (STUDY DURATION: 90 WK), Route [Carcinogen]: ORAL, Route [Promoter]: ORAL, Species: RAT, Strain/Sex: WISTAR/MALE): glandular stomach: adenoma or adenocarcinoma; outcome (Carcinogen: N-METHYL-N'-NITRO-N-NITROSOGUANIDINE, 70-25-7, Doses [Carcinogen]: 100 PPM IN DRINKING WATER FOR 10 WK, Doses [Promoter]: 0, 2.5, 5% IN DIET FOR 62 WK BEGINNING POST CARCINOGEN TREATMENT (STUDY DURATION: 72 WK), Doses [Promoter]: 0, 2.5, 5% IN DIET FOR 62 WK BEGINNING POST CARCINOGEN TREATMENT (STUDY DURATION: 72 WK), Route [Carcinogen]: ORAL, Route [Promoter]: ORAL, Species: RAT, Strain/Sex: WISTAR/MALE): stomach: adenocarcinoma; outcome (Carcinogen: N-[4-(5-NITRO-2-FURYL)-2-THIAZOLYL]FORMAMIDE, 24554-26-5, Doses [Carcinogen]: 0.2% IN DIET FOR 6 WK, Doses [Promoter]: 0, 1.34% IN PROLAB DIET FOR 72 WK BEGINNING POST CARCINOGEN TREATMENT (STUDY DURATION: 78 WK), Route [Carcinogen]: ORAL, Route [Promoter]: ORAL, Species: RAT, Strain/Sex: F344/MALE): urinary bladder: carcinoma, carcinoma and papilloma

**Q.** Which results are given for CC(=O)Nc1ccc2c(c1)Cc1ccccc1-2?
**A.** outcome (Carcinogen: DIETHYLNITROSAMINE, 55-18-5, Doses [Carcinogen]: 50 MG/KG ONCE 24 HR AFTER 2/3 PARTIAL HEPATECTOMY, Doses [Promoter]: 0, 0.02% IN DIET FOR 1 MO BEGINNING 1 WK POST CARCINOGEN DOSE (STUDY DURATION: 8 MO), Route [Carcinogen]: INTRAPERITONEAL, Route [Promoter]: ORAL, Species: RAT, Strain/Sex: WISTAR/MALE): liver: carcinoma; outcome (Carcinogen: DIETHYLNITROSAMINE, 55-18-5, Doses [Carcinogen]: 200 MG/KG BW IN 0.9% SALINE ONCE, Doses [Promoter]: 0, 0.05 MMOL/KG BW IN POLYETHYLENE GLYCOL FOR 5 D BEGINNING 1 WK POST CARCINOGEN DOSE, 70% PARTIAL HEPATECTOMY PERFORMED, Route [Carcinogen]: INTRAPERITONEAL, Route [Promoter]: GAVAGE, Species: RAT, Strain/Sex: SPRAGUE-DAWLEY/MALE): liver: hepatocellular carcinoma

**Q.** Which outcome (Carcinogen: 7,12-DIMETHYLBENZ(A)ANTHRACENE, Doses [Carcinogen]: TOP, Route [Carcinogen]: DERMAL, Route [Promoter]: DERMAL, Species: MOUSE) does the source give for CC1=CC[C@H]2C[C@@H]1C2(C)C here?
**A.** Its outcome is “integumentary system (skin)”.

**Q.** With C[C@]12CC[C@@H]3c4ccc(O)cc4CC[C@H]3[C@@H]1CC[C@@H]2OC(=O)CCc1ccccc1 (tested in a mixture with another compound) as the molecule, how does the outcome (Carcinogen: N-NITROSOMORPHOLINE, Doses [Carcinogen]: IG, Route [Carcinogen]: GAVAGE, Route [Promoter]: INTRAMUSCULAR, Species: RAT, Strain/Sex: FEMALE) read?
**A.** Its outcome is “liver”.

**Q.** With CNc1ccccc1C(=O)O[C@@H]1[C@@H](C)[C@@]2(O)[C@@H](C=C(CO)C[C@]3(O)C(=O)C(C)=C[C@@H]23)[C@@H]2C(C)(C)[C@]12OC(C)=O as the molecule, how does the outcome (Carcinogen: 7,12-DIMETHYLBENZ[A]ANTHRACENE, 57-97-6, Doses [Carcinogen]: 10 NMOL ONCE, Doses [Promoter]: 0, 3.3 NMOL 2/WK FOR 20 WK (STUDY DURATION: 20 WK), Route [Carcinogen]: DERMAL, Route [Promoter]: DERMAL, Species: MOUSE, Strain/Sex: SENCAR) read?
**A.** Its outcome is “skin: papilloma”.
